Reference: patent US7993917B2, “Method for obtaining a cellular product from a cell or a tissue using protein-free medium” (The United States of America as represented by the …, priority 1999, dated 2011)
pIC50: −log10 of the molar value. Read-outs that look alike come from different tables or passages of the source.

System: P. falciparum isolates
Experiment: 48 hour parasite lactate dehydrogenase (48 hr pLDH) drug sensitivity assay after transport from the field on ice in BAM
Format: cell-based
Conditions: Plasmodium falciparum
Method: Malaria parasites fail to thrive after removal from the patient. They can be preserved either by cryopreservation in liquid nitrogen or storage at −70° C. These techniques used for long term storage are too labor-intensive and expensive for routine use. […] Transit time can vary between a few hours to less than a week. Because of the clinical demand for such a service, BAM was evaluated in the field as a transport medium for malaria parasites.

[1] = 24 h, isolate 1107, 1 day in transit, read-out: IC50
[2] = 24 h, isolate 1236, 1 day in transit, read-out: IC50
[3] = 24 h, isolate A116, 1 day in transit, read-out: IC50
[4] = 24 h, isolate A246, 1 day in transit, read-out: IC50
[5] = 24 h, isolate A296, 1 day in transit, read-out: IC50
[6] = 24 h, isolate B236, 1 day in transit, read-out: IC50
[7] = 24 h, isolate C67, 1 day in transit, read-out: IC50
[8] = 24 h, isolate C107, 1 day in transit, read-out: IC50
[9] = 24 h, isolate C166, 1 day in transit, read-out: IC50
[10] = 24 h, isolate D86, 1 day in transit, read-out: IC50
[11] = 24 h, isolate D107, 1 day in transit, read-out: IC50
[12] = 24 h, isolate D296, 1 day in transit, read-out: IC50
[13] = 24 h, isolate E107, 1 day in transit, read-out: IC50
[14] = 24 h, isolate F166, 1 day in transit, read-out: IC50
[15] = 24 h, isolate F296, 1 day in transit, read-out: IC50
[16] = 24 h, isolate G17, 1 day in transit, read-out: IC50
[17] = 24 h, isolate G236, 1 day in transit, read-out: IC50
[18] = 24 h, isolate H107, 1 day in transit, read-out: IC50
[19] = 24 h, isolate J107, 1 day in transit, read-out: IC50
[20] = 24 h, isolate K107, 1 day in transit, read-out: IC50
[21] = 24 h, isolate KilH, 1 day in transit, read-out: IC50
[22] = 24 h, isolate KilS, 1 day in transit, read-out: IC50
[23] = 24 h, isolate L107, 1 day in transit, read-out: IC50
[24] = 24 h, isolate L137, 1 day in transit, read-out: IC50
[25] = 48 h, isolate B116, 2 days in transit, read-out: IC50
[26] = 48 h, isolate B296, 2 days in transit, read-out: IC50
[27] = 48 h, isolate C108, 2 days in transit, read-out: IC50
[28] = 48 h, isolate G296, 2 days in transit, read-out: IC50
[29] = 48 h, isolate H236, 2 days in transit, read-out: IC50
[30] = 48 h, isolate R107, 2 days in transit, read-out: IC50

Structure (SMILES): CCN(CC)Cc1cc(Nc2ccnc3cc(Cl)ccc23)ccc1O [Amodiaquine, amodiaquine]
- pIC50 [1]: 8.18
- pIC50 [2]: 7.57
- pIC50 (24 h, isolate A67, 1 day in transit, read-out: IC50): 7.42
- pIC50 (24 h, isolate A107, 1 day in transit, read-out: IC50): 7.04
- pIC50 [3]: 7.15
- pIC50 [4]: 7.77
- pIC50 [5]: 6.82
- pIC50 [6]: 7.54
- pIC50 [7]: 6.93
- pIC50 [8]: 6.75
- pIC50 [9]: 7.17
- pIC50 [10]: 7.53
- pIC50 [11]: 6.75
- pIC50 [12]: 6.74
- pIC50 [13]: 6.82
- pIC50 (24 h, isolate F107, 1 day in transit, read-out: IC50): 7.63
- pIC50 [14]: 7.04
- pIC50 [15]: 6.69
- pIC50 [16]: 7.39
- pIC50 [17]: 7.47
- pIC50 [18]: 7.00
- pIC50 [19]: 7.90
- pIC50 [20]: 7.45
- pIC50 [21]: 6.90
- pIC50 [22]: 6.89
- pIC50 [23]: 7.74
- pIC50 [24]: 6.83
- pIC50 (48 h, isolate B106, 2 days in transit, read-out: IC50): 7.00
- pIC50 [25]: 6.84
- pIC50 [26]: 7.27
- pIC50 [27]: 7.06
- pIC50 (48 h, isolate D166, 2 days in transit, read-out: IC50): 8.18
- pIC50 [28]: 6.75
- pIC50 [29]: 8.07
- pIC50 [30]: 7.10

Structure (SMILES): CCN(CC)CCCC(C)Nc1ccnc2cc(Cl)ccc12 (stereo not shown) [Chloroquine, chloroquine]
- pIC50 (24 h, isolate 1107, 1 day in transit): 6.80
- pIC50 (24 h, isolate 1236, 1 day in transit): 7.65
- pIC50 (24 h, isolate A67, 1 day in transit): 6.72
- pIC50 (24 h, isolate A107, 1 day in transit): 6.09
- pIC50 (24 h, isolate A116, 1 day in transit): 7.23
- pIC50 (24 h, isolate A246, 1 day in transit): 7.70
- pIC50 (24 h, isolate A296, 1 day in transit): 6.94
- pIC50 (24 h, isolate B236, 1 day in transit): 7.04
- pIC50 (24 h, isolate C67, 1 day in transit): 6.85
- pIC50 (24 h, isolate C107, 1 day in transit): 6.26
- pIC50 (24 h, isolate C166, 1 day in transit): 7.51
- pIC50 (24 h, isolate D86, 1 day in transit): 7.48
- pIC50 (24 h, isolate D107, 1 day in transit): 6.30
- pIC50 (24 h, isolate E67, 1 day in transit): 7.30
- pIC50 (24 h, isolate E107, 1 day in transit): 6.26
- pIC50 (24 h, isolate F107, 1 day in transit): 6.09
- pIC50 (24 h, isolate F166, 1 day in transit): 7.53
- pIC50 (24 h, isolate F296, 1 day in transit): 7.18
- pIC50 (24 h, isolate G17, 1 day in transit): 7.28
- pIC50 (24 h, isolate G236, 1 day in transit): 6.48
- pIC50 (24 h, isolate H107, 1 day in transit): 6.74
- pIC50 (24 h, isolate J107, 1 day in transit): 6.53
- pIC50 (24 h, isolate K107, 1 day in transit): 6.52
- pIC50 (24 h, isolate KilH, 1 day in transit): 6.61
- pIC50 (24 h, isolate KilS, 1 day in transit): 6.91
- pIC50 (24 h, isolate L107, 1 day in transit): 6.65
- pIC50 (24 h, isolate L137, 1 day in transit): 6.49
- pIC50 (48 h, isolate B106, 2 days in transit): 6.53
- pIC50 (48 h, isolate B116, 2 days in transit): 7.45
- pIC50 (48 h, isolate B296, 2 days in transit): 6.18
- pIC50 (48 h, isolate C108, 2 days in transit): 6.59
- pIC50 (48 h, isolate G296, 2 days in transit): 6.40
- pIC50 (48 h, isolate H236, 2 days in transit): 7.04
- pIC50 (48 h, isolate R107, 2 days in transit): 7.10

Structure (SMILES): C=C[C@H]1C[N@@]2CC[C@H]1C[C@H]2[C@H](O)c1ccnc2ccc(OC)cc12 [Quinine, quinine]
- pIC50 [1]: 7.40
- pIC50 [2]: 10.40
- pIC50 [3]: 6.82
- pIC50 [4]: 7.79
- pIC50 [5]: 6.32
- pIC50 [6]: 6.74
- pIC50 [7]: 6.87
- pIC50 [8]: 7.02
- pIC50 [9]: 6.78
- pIC50 [10]: 6.76
- pIC50 [11]: 6.58
- pIC50 [12]: 6.00
- pIC50 (24 h, isolate E67, 1 day in transit, read-out: IC50): 6.97
- pIC50 [13]: 6.64
- pIC50 [14]: 7.03
- pIC50 [15]: 7.00
- pIC50 [16]: 6.84
- pIC50 [17]: 6.52
- pIC50 [18]: 7.55
- pIC50 [19]: 7.26
- pIC50 [20]: 6.45
- pIC50 [21]: 6.42
- pIC50 [22]: 6.73
- pIC50 [23]: 7.23
- pIC50 [24]: 6.87
- pIC50 [25]: 6.87
- pIC50 [26]: 8.74
- pIC50 [27]: 6.80
- pIC50 [28]: 6.51
- pIC50 [29]: 6.68
- pIC50 [30]: 6.33
